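Where inhibition never reached the appropriate level, the endpoint shown equals the highest concentration tested. Otherwise, values were interpolated linearly from a five-concentration, 48-hour dose response in 96-well plates. Abbreviation: GI50, concentration required for 50% inhibition of growth.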 The source made the active and inactive calls. Cut-off read from the data, not from the text of the source: active = GI50 up to about 1.1 µM and inactive = higher.
How the values were obtained:
Assay in all cases: NCI anticancer screen, dose series, 48 h
[1] = test system: Malme-3M
[2] = test system: CAKI-1
[3] = test system: UO-31
[4] = test system: OVCAR-3
[5] = test system: NCI/ADR-RES
[6] = test system: A549
[7] = test system: T47D
[8] = test system: RXF 393
[9] = test system: UACC-62
[10] = test system: HOP-62
[11] = test system: HT-29
[12] = test system: SF-295
[13] = test system: SNB-75
[14] = test system: MOLT-4
[15] = test system: NCI-H522
[16] = test system: SNB-19
[17] = test system: COLO 205
[18] = test system: BT-549
[19] = test system: NCI-H23
[20] = test system: ACHN

Compound | GI50 [1] | GI50 [2] | GI50 [3] | GI50 [4] | GI50 [5] | GI50 [6] | GI50 [7] | GI50 [8] | GI50 [9] | GI50 [10] | GI50 [11] | GI50 [12] | GI50 [13] | GI50 [14] | GI50 [15] | GI50 [16] | GI50 [17] | GI50 [18] | GI50 [19] | GI50 [20]
O=C(O)CC1(CC(=O)O)Nc2ccccc2SC1=O | > 100 µM (inactive) | > 100 µM (inactive) | > 100 µM (inactive) | > 100 µM (inactive) | > 100 µM (inactive) | > 100 µM (inactive) | > 100 µM (inactive) | > 100 µM (inactive) | > 100 µM (inactive) | > 100 µM (inactive) | > 100 µM (inactive) | > 100 µM (inactive) | > 100 µM (inactive) | > 100 µM (inactive) | > 100 µM (inactive) | > 100 µM (inactive) | > 100 µM (inactive) | > 100 µM (inactive) | > 100 µM (inactive) | > 100 µM (inactive)
Cc1cn(C2OC(CO)C(O)C2F)c(=O)[nH]c1=O (configuration not stated) | > 100 µM (inactive) | > 100 µM (inactive) | > 100 µM (inactive) | > 100 µM (inactive) | 64 µM (inactive) | 61.5 µM (inactive) | > 100 µM (inactive) | 43 µM (inactive) | 64.3 µM (inactive) | 95.3 µM (inactive) | > 100 µM (inactive) | > 100 µM (inactive) | > 100 µM (inactive) | 64.3 µM (inactive) | 19.3 µM (inactive) | > 100 µM (inactive) | > 100 µM (inactive) | 87.1 µM (inactive) | > 100 µM (inactive) | 89.7 µM (inactive)
COC(=O)C(=O)C(C(=O)C(=O)Nc1ccc(Cl)c(Cl)c1)c1nc2ccc(C(=O)c3ccccc3)cc2nc1O (configuration not stated) | 73.8 µM (inactive) | 22.5 µM (inactive) | 26.4 µM (inactive) | 86.7 µM (inactive) | 33.6 µM (inactive) | > 100 µM (inactive) | 49 µM (inactive) | 38.4 µM (inactive) | > 100 µM (inactive) | 41.6 µM (inactive) | 44.2 µM (inactive) | 49.4 µM (inactive) | 28.3 µM (inactive) | 15 µM (inactive) | 27.7 µM (inactive) | 45.6 µM (inactive) | – | > 100 µM (inactive) | 47.6 µM (inactive) | 46.5 µM (inactive)
O=C1NC(Nc2ccccc2Cl)=N/C1=C\c1c(Cl)cccc1Cl | 31.1 µM (inactive) | 27.8 µM (inactive) | 20.7 µM (inactive) | 27 µM (inactive) | 23.2 µM (inactive) | 30.4 µM (inactive) | 28.6 µM (inactive) | 23.4 µM (inactive) | 32.1 µM (inactive) | 39.7 µM (inactive) | 31.6 µM (inactive) | 26.5 µM (inactive) | 24.7 µM (inactive) | 27 µM (inactive) | 18.7 µM (inactive) | 44.1 µM (inactive) | 27.7 µM (inactive) | 34.1 µM (inactive) | 37.1 µM (inactive) | 50.5 µM (inactive)
OC1(c2ccccc2)C2CC=CC2C1(c1ccccc1)c1ccccc1 (configuration not stated) | 19.5 µM (inactive) | 17.1 µM (inactive) | 31.1 µM (inactive) | 30.8 µM (inactive) | 44.3 µM (inactive) | 25.2 µM (inactive) | 23.1 µM (inactive) | 16.7 µM (inactive) | 23.9 µM (inactive) | 70.3 µM (inactive) | 18.4 µM (inactive) | 34 µM (inactive) | 34.1 µM (inactive) | 16.1 µM (inactive) | 13.5 µM (inactive) | 51.3 µM (inactive) | 18.4 µM (inactive) | 30.3 µM (inactive) | 41.9 µM (inactive) | 43.5 µM (inactive)
CCN(CC)CCN(C)CCc1ccc(Br)cc1 | > 100 µM (inactive) | > 100 µM (inactive) | 83.8 µM (inactive) | > 100 µM (inactive) | 79.4 µM (inactive) | > 100 µM (inactive) | > 100 µM (inactive) | 38.5 µM (inactive) | – | 29.7 µM (inactive) | 24.9 µM (inactive) | 51.5 µM (inactive) | 46.7 µM (inactive) | 53.6 µM (inactive) | 69.3 µM (inactive) | > 100 µM (inactive) | 17.4 µM (inactive) | 42.5 µM (inactive) | > 100 µM (inactive) | > 100 µM (inactive)
S=c1nc(N2CCCCC2)c2cn[nH]c2[nH]1 | 64.9 µM (inactive) | 27.7 µM (inactive) | 23.9 µM (inactive) | 54.8 µM (inactive) | > 100 µM (inactive) | 76.7 µM (inactive) | 59.6 µM (inactive) | 91.8 µM (inactive) | 50.1 µM (inactive) | > 100 µM (inactive) | 41.8 µM (inactive) | 59.6 µM (inactive) | > 100 µM (inactive) | – | 16.7 µM (inactive) | > 100 µM (inactive) | 28.8 µM (inactive) | 26.1 µM (inactive) | 40.4 µM (inactive) | 54.6 µM (inactive)
COc1ccc(C2CC(C)(O)Oc3cc4c(cc32)OCO4)cc1 (configuration not stated) | 47.2 µM (inactive) | 41.7 µM (inactive) | 37.1 µM (inactive) | 32.3 µM (inactive) | 23.3 µM (inactive) | 30.5 µM (inactive) | 2.02 µM (inactive) | 0.0855 µM (active) | 36.9 µM (inactive) | 40.1 µM (inactive) | 24.9 µM (inactive) | 30.8 µM (inactive) | 29.7 µM (inactive) | 22.1 µM (inactive) | 11.2 µM (inactive) | 38.4 µM (inactive) | 19.7 µM (inactive) | 17.3 µM (inactive) | 33.7 µM (inactive) | 43.2 µM (inactive)
Cc1nnc(SCc2nc(C#N)c(C#N)nc2CSc2nnc(C)s2)s1 | 5.75 µM (inactive) | 5.74 µM (inactive) | 8.49 µM (inactive) | 6.78 µM (inactive) | 30.6 µM (inactive) | 33.3 µM (inactive) | 5.73 µM (inactive) | 6.76 µM (inactive) | 15.8 µM (inactive) | 19.1 µM (inactive) | 18.2 µM (inactive) | 39.4 µM (inactive) | 19.8 µM (inactive) | 2.51 µM (inactive) | 3.34 µM (inactive) | 47.5 µM (inactive) | 11.5 µM (inactive) | 16.2 µM (inactive) | 19.1 µM (inactive) | 8.53 µM (inactive)
Nc1nc(N)c2cc(-c3cc4ccccc4[nH]3)ccc2n1 | 16 µM (inactive) | 27.4 µM (inactive) | 15.7 µM (inactive) | 35.6 µM (inactive) | 30.3 µM (inactive) | 32.2 µM (inactive) | 3.48 µM (inactive) | 24.8 µM (inactive) | 17.4 µM (inactive) | 30.8 µM (inactive) | 15.5 µM (inactive) | 27.6 µM (inactive) | 32.4 µM (inactive) | 26.5 µM (inactive) | 17.5 µM (inactive) | 33 µM (inactive) | 10.3 µM (inactive) | 23 µM (inactive) | 27.5 µM (inactive) | 18.9 µM (inactive)
CCOc1cc(NC(C)=O)ccc1C(=O)NNS(=O)(=O)c1ccc(Cl)cc1Cl | > 50 µM (inactive) | > 50 µM (inactive) | > 50 µM (inactive) | > 50 µM (inactive) | > 50 µM (inactive) | > 50 µM (inactive) | > 50 µM (inactive) | > 50 µM (inactive) | > 50 µM (inactive) | > 50 µM (inactive) | > 50 µM (inactive) | > 50 µM (inactive) | > 50 µM (inactive) | 8.75 µM (inactive) | > 50 µM (inactive) | > 50 µM (inactive) | > 50 µM (inactive) | > 50 µM (inactive) | > 50 µM (inactive) | > 50 µM (inactive)
CCOc1cc2c(cc1O)C=C[C@@H]1[C@@H]2CC[C@]2(C)[C@@H](O)CC[C@@H]12 | 1.5 µM (inactive) | 5.28 µM (inactive) | 6.08 µM (inactive) | 1.87 µM (inactive) | 1.37 µM (inactive) | 4.27 µM (inactive) | 6.01 µM (inactive) | 7.29 µM (inactive) | 4.07 µM (inactive) | 3.85 µM (inactive) | 10 µM (inactive) | 1.91 µM (inactive) | 3.3 µM (inactive) | 2.91 µM (inactive) | 1.77 µM (inactive) | 3.52 µM (inactive) | 21.1 µM (inactive) | 13.9 µM (inactive) | 3.85 µM (inactive) | 11.6 µM (inactive)
O=[N+]([O-])c1ccc(/N=N/c2c(O)ccc3cc(S(=O)(=O)O)ccc23)cc1 | > 100 µM (inactive) | > 100 µM (inactive) | > 100 µM (inactive) | > 100 µM (inactive) | > 100 µM (inactive) | > 100 µM (inactive) | > 100 µM (inactive) | > 100 µM (inactive) | > 100 µM (inactive) | > 100 µM (inactive) | > 100 µM (inactive) | > 100 µM (inactive) | > 100 µM (inactive) | > 100 µM (inactive) | > 100 µM (inactive) | > 100 µM (inactive) | > 100 µM (inactive) | > 100 µM (inactive) | > 100 µM (inactive) | > 100 µM (inactive)
NC(C(=O)O)c1cc(O)no1 (configuration not stated) | > 100 µM (inactive) | > 100 µM (inactive) | > 100 µM (inactive) | > 100 µM (inactive) | > 100 µM (inactive) | > 100 µM (inactive) | > 100 µM (inactive) | > 100 µM (inactive) | > 100 µM (inactive) | > 100 µM (inactive) | > 100 µM (inactive) | > 100 µM (inactive) | > 100 µM (inactive) | > 100 µM (inactive) | > 100 µM (inactive) | > 100 µM (inactive) | > 100 µM (inactive) | > 42.5 µM (inactive) | > 100 µM (inactive) | > 100 µM (inactive)
